Source: the NIST ThermoML archive (doi:10.1016/j.jct.2016.07.046)
Numbers after ± are expanded uncertainties.

Assay: mn = molality of the nth substance listed, in mol/kg
Conditions: 87 kPa, Liquid, Vibrating tube method

NCC(=O)O [2-aminoacetic acid] + O
mass density [kg/m3]
Conditions	m1 = 0.0547	m1 = 0.1057	m1 = 0.1546	m1 = 0.2061	m1 = 0.2531	m1 = 0.3046	m1 = 0.3538	m1 = 0.403	m1 = 0.452	m1 = 0.499
293.15 K	999.97 ± 3	1001.59 ± 3	1003.13 ± 3	1004.74 ± 3	1006.2 ± 3	1007.78 ± 3	1009.28 ± 3	1010.77 ± 3	1012.24 ± 3	1013.64 ± 3
298.15 K	998.8 ± 3	1000.41 ± 3	1001.94 ± 3	1003.54 ± 3	1004.99 ± 3	1006.56 ± 3	1008.06 ± 3	1009.54 ± 3	1011 ± 3	1012.39 ± 3
303.15 K	997.39 ± 3	998.99 ± 3	1000.51 ± 3	1002.1 ± 3	1003.53 ± 3	1005.09 ± 3	1006.57 ± 3	1008.04 ± 3	1009.48 ± 3	1010.86 ± 3
308.15 K	995.77 ± 3	997.36 ± 3	–	1000.45 ± 3	1001.88 ± 3	1003.42 ± 3	1004.89 ± 3	1006.35 ± 3	1007.78 ± 3	1009.14 ± 3
313.15 K	993.92 ± 3	995.5 ± 3	997 ± 3	–	999.99 ± 3	1001.53 ± 3	1002.98 ± 3	1004.43 ± 3	1005.86 ± 3	1007.22 ± 3

N[C@@H](CO)C(=O)O [L-serine] + O
mass density [kg/m3]
Conditions	m1 = 0.0529	m1 = 0.1005	m1 = 0.1529	m1 = 0.2024	m1 = 0.2541	m1 = 0.3019	m1 = 0.3525	m1 = 0.4023	m1 = 0.4535	m1 = 0.5008
293.15 K	1000.59 ± 3	1002.7 ± 3	1005 ± 3	1007.15 ± 3	1009.38 ± 3	1011.42 ± 3	1013.56 ± 3	1015.65 ± 3	1017.77 ± 3	1019.72 ± 3
298.15 K	999.41 ± 3	1001.5 ± 3	1003.78 ± 3	1005.92 ± 3	1008.13 ± 3	1010.15 ± 3	1012.27 ± 3	1014.34 ± 3	1016.44 ± 3	1018.37 ± 3
303.15 K	997.99 ± 3	1000.06 ± 3	1002.33 ± 3	1004.45 ± 3	1006.64 ± 3	1008.65 ± 3	1010.76 ± 3	1012.81 ± 3	1014.9 ± 3	1016.82 ± 3
308.15 K	996.36 ± 3	998.42 ± 3	1000.67 ± 3	1002.77 ± 3	1004.94 ± 3	1006.94 ± 3	1009.04 ± 3	1011.08 ± 3	1013.16 ± 3	1015.07 ± 3
313.15 K	994.5 ± 3	996.54 ± 3	998.77 ± 3	1000.85 ± 3	1003.01 ± 3	1004.99 ± 3	1007.07 ± 3	1009.11 ± 3	1011.18 ± 3	1013.07 ± 3

CCn1cc[n+](C)c1.O=S(=O)([O-])O [1-ethyl-3-methylimidazolium hydrogen sulfate] + O
mass density [kg/m3]
Conditions	293.15 K	298.15 K	303.15 K	308.15 K	313.15 K
m1 = 0.05	1001.85 ± 3	1000.62 ± 3	999.15 ± 3	997.45 ± 3	995.6 ± 3
m1 = 0.1	1005.19 ± 3	1003.89 ± 3	1002.36 ± 3	1000.61 ± 3	998.69 ± 3
m1 = 0.15	1008.26 ± 3	1006.91 ± 3	1005.32 ± 3	1003.53 ± 3	1001.51 ± 3
